The values below come from patent US7939552B2, “Benzyloxypropylamine derivative” (Nippon Zoki Pharmaceutical Co., Ltd., priority 2005, dated 2011).

Structures are written as SMILES. Like-named read-outs stand apart in the source and are kept apart here.

For one data set, the target named is T1, human NK1 receptor (Homo sapiens, UniProt P25103).
T1 construct: expressed in transfected cells; host or cells: CHO cells (hNK1-CHO)
Kind of data set: Human NK1 receptor binding assay (3H-Sar9-SP, hNK1-CHO cells). The note with it: room temperature 60 minutes. The method, then:
A supernatant liquid was removed from an hNK1-CHO cell incubation flask in a confluent state, trypsin (0.25%)-EDTA (1 mmol/L) (Gibco) was added thereto and the cells were exfoliated and recovered. After they were washed with a buffer A (pH 7.5; 50 mmol/L Tris hydrochloride 50 mmol/L, 150 mmol/L NaCl and 0.02% BSA) for one time (at […] for 5 minutes), cell numbers were adjusted and re-floated on a buffer for assay {a buffer A to which 40 μg/mL bacitracin (Sigma), 4 μg/mL leupeptin (Sigma), 4 μg/mL chymostatin (Sigma) and 4 μg/mL phosphoramidon (Sigma) were added}. The hNK1-CHO cells (100 μL) were placed in a tube (TPX-12, Maruemu) in which 300 μL of the buffer for assay was charged so as to make cells 10^5 per tube, 50 μL of a hot solution (^3H-Sar^9-SP, final concentration: […]) and 50 μL of a substance to be tested were added (a system of 500 μL), stirred and made to react at room temperature for 60 minutes. After completion of the reaction, it was filtered through a GF/B filter (25 mm diameter, Whatman) which was previously dipped in 0.1% polyethyleneimine p-70 (Wako Pure Chemical), washed with the buffer A (4 mL each for three times), placed in a vial and dried at 60° C. for one night. After drying, 10 mL of a scintillator (AL-1, toluene base, Dojindo) was added thereto and dpm was measured by a liquid scintillation counter (for 5 minutes/vial).
With regard to a nonspecific binding, it was defined as the dpm when 10 μmol/L of the substance P was added instead of the substance to be tested. The experiment was conducted in duplicate and at least three experiments were repeated. IC50 value was calculated using a probit method (statistic library II, Yukms).

The nature of data set [1]: Pharmacokinetic test in blood by a single oral administration to guinea pigs. It is filed as in vivo. Conditions: 100 mg/kg orally, plasma; for AUC(0-t): read-out: AUC 0-24 h; for half-life: read-out: t½ (converted). The method, then: Male guinea pigs of a Hartley strain (SPF, Nippon SLC) were purchased and subjected to a preliminary breeding for one week and the normally grown ones were fasted for one night and used for the test. The compound of the present invention was suspended in 1 g/dL methyl cellulose solution and 100 mg/kg was orally administered in an administering dose of 5 mL/kg. After 0.5, 1, 2, 4, 8 and 24 hour(s) from the oral administration, about 0.4 mL of blood was collected from the vein of median of foreleg using a heparinized capillary. Plasma prepared by its centrifugation (at 12,000 rpm for 10 minutes) was stored at −80° C. until the measurement. Measurement of the concentration in blood was conducted by a UV-detecting HPLC method.

The next data set deals with T2, NK1 receptor (Cavia porcellus, UniProt P30547).
T2 construct: the brain was excised and the striatum was collected; from tissue; host or cells: striatum of male Hartley guinea pigs (Nippon SLC), homogenate after oral dosing
T2 sequence (P30547 whole entry): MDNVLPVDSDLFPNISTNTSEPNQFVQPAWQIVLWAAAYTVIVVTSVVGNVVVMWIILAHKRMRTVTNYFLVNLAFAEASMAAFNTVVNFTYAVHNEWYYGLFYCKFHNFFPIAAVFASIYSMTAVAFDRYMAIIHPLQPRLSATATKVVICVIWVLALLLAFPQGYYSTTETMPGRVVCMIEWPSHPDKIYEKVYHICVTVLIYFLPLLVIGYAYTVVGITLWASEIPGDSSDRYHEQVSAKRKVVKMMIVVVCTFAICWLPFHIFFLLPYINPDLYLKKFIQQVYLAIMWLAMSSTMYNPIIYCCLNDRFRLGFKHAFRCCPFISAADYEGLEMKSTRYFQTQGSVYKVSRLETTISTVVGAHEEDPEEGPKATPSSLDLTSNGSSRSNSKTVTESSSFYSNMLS
Kind of data set: Test for transfer into cerebral center of guinea pigs ([3H]substance P binding in striatum homogenate after oral dosing). It is filed as in vivo. Conditions: 4 hours after oral administration of 20 mg/mL at 5 mL/kg. The method, then:
Male guinea pigs of a Hartley strain (four weeks age, SPF, Nippon SLC) were purchased, subjected to a preliminary breeding for not shorter than one week, fasted for one night and used for the test where one group comprised eight guinea pigs. As a substance to be tested, the Compound 21 which is the compound of the present invention was suspended in 1% methyl cellulose […] to make 20 mg/mL. As a substance for comparison, LY-303870 [(R)-1-[N-(2-methoxybenzyl)acetylamino]-3-(1H-indol-3-yl)-2-[N-(2-(4-(piperidin-1-yl)piperidin-1-yl)acetyl)amino]propane] was dissolved in a 1% aqueous solution of MC to make 20 mg/mL.
A test was conducted in accordance with a method of Iyengar, et al. Thus, a 1% aqueous solution of MC and the above-prepared solution of the test substance were orally administered in an administering dose of 5 mL/kg, then the animals were killed by carbon dioxide gas after 4 hours from administration of the test substance solution and after 1 hour from administration of the 1% aqueous MC solution and the comparative substance solution, the brain was excised and the striatum was collected. After measuring its wet weight, 50 mmol/L Tris-HCl (pH 7.5) was added thereto so as to make it 40 mg/mL followed by homogenizing for 10 seconds. […]

[2] abbreviates: male, Hartley, guinea pig, po, read-out: Cmax.
[3] abbreviates: male, Hartley, guinea pig, po, read-out: Tmax.

T1 sequence (P25103 whole entry): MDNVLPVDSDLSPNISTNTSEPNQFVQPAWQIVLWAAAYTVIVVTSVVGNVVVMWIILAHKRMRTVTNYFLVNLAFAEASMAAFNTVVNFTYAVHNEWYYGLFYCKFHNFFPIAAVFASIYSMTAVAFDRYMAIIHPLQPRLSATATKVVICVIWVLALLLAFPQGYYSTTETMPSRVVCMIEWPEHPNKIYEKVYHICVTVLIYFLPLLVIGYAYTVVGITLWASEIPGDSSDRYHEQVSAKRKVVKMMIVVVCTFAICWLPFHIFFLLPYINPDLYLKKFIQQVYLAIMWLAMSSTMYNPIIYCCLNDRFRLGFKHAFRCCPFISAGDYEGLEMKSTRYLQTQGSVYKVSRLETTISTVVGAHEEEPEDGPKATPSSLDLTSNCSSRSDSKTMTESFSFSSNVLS

Turning to `O=C(NCC(COCc1cc(C(F)(F)F)cc(C(F)(F)F)c1)c1ccc(F)cc1)c1cc[n+]([O-])cc1` (stereo not drawn) [Compound 21, N-[3-(3,5-Bis(trifluoromethyl)benzyloxy)-2-(4-fluorophenyl)propyl]-1-oxyisonicotinamide], the IC50 at human NK1 receptor is 2.9 nM. In data set [1], the Cmax was determined as 26900 ng/mL, the Tmax came out at 4 h and the t½ stood at 3.2 h. On NK1 receptor (guinea pig striatum homogenate, control group 1083.4±95.5 dpm), the “specific binding of [3H]substance P” value worked out at 228.2±15.5 dpm. Further, the “occupying rate of the NK1 receptor in the brain” value on NK1 receptor (guinea pigs, mean value ±standard deviation) is listed as 79.9±1.4%.

On human NK1 receptor, `O=C(NCC(COCc1cc(C(F)(F)F)cc(C(F)(F)F)c1)c1ccc(F)cc1)c1ccc[n+]([O-])c1` (stereo not drawn) [Compound 23, N-[3-(3,5-Bis(trifluoromethyl)benzyloxy)-2-(4-fluorophenyl)propyl]-1-oxynicotinamide] came in with an IC50 of 5.4 nM. Moreover, in data set [1] (male, Hartley, guinea pig, po), the AUC(0-t) came to 236 µg·h/mL and the half-life was 210 min. Besides, the Cmax in data set [1] (setting [2]) stood at 17500 ng/mL. Moreover, the Tmax in data set [1] (setting [3]) amounted to 4 h.

In turn, `O=C(Cc1cc[n+]([O-])cc1)NCC(COCc1cc(C(F)(F)F)cc(C(F)(F)F)c1)c1ccccc1` (stereo not drawn) [Compound 39, N-[3-(3,5-Bis(trifluoromethyl)benzyloxy)-2-phenylpropyl]-2-(1-oxypyridin-4-yl)acetamide] returned an IC50 at human NK1 receptor of 7.3 nM. For the same compound, in data set [1] (male, Hartley, guinea pig, po), the AUC(0-t) was found to be 379 µg·h/mL and the half-life is 192 min. In data set [1] (setting [2]), the Cmax worked out at 25700 ng/mL. Moreover, the time to peak (Tmax) in data set [1] (setting [3]) came out at 8 h.

With `O=C(Cc1cc[n+]([O-])cc1)NCC(COCc1cc(C(F)(F)F)cc(C(F)(F)F)c1)c1ccc(F)cc1` (stereo not drawn) [Compound 40, N-[3-(3,5-Bis(trifluoromethyl)benzyloxy)-2-(4-fluorophenyl)propyl]-2-(1-oxypyridin-4-yl)acetamide], the IC50 at human NK1 receptor came out at 7.3 nM. In data set [1] (male, Hartley, guinea pig, po), the AUC(0-t) was 279 µg·h/mL and the half-life is 240 min. For the same compound, in data set [1] (setting [2]), the Cmax was 22800 ng/mL. In data set [1] (setting [3]), the time to peak (Tmax) is 4 h.

`O=C(Cc1ccc[n+]([O-])c1)NCC(COCc1cc(C(F)(F)F)cc(C(F)(F)F)c1)c1ccc(F)cc1` (stereo not drawn) [Compound 42, N-[3-(3,5-Bis(trifluoromethyl)benzyloxy)-2-(4-fluorophenyl)propyl]-2-(1-oxypyridin-3-yl)acetamide] yielded an IC50 on human NK1 receptor of 4 nM. In data set [1] (male, Hartley, guinea pig, po), the AUC(0-t) amounted to 215 µg·h/mL and the half-life is 180 min. The highest concentration (Cmax) in data set [1] (setting [2]) amounted to 16900 ng/mL. In data set [1] (setting [3]), the Tmax stood at 4 h.

At human NK1 receptor, `O=C(CCc1cc[n+]([O-])cc1)NCC(COCc1cc(C(F)(F)F)cc(C(F)(F)F)c1)c1ccccc1` (stereo not drawn) [Compound 51, N-[3-(3,5-Bis(trifluoromethyl)benzyloxy)-2-phenylpropyl]-3-(1-oxypyridin-4-yl)propionamide] showed an IC50 of 9.4 nM. Moreover, in data set [1] (male, Hartley, guinea pig, po), the AUC(0-t) was determined as 103 µg·h/mL and the half-life is 204 min. Further, in data set [1] (setting [2]), the Cmax turned out to be 13800 ng/mL. The Tmax in data set [1] (setting [3]) amounted to 1 h.

Consider `Cl.O=C(NCC(COCc1cc(C(F)(F)F)cc(C(F)(F)F)c1)c1ccccc1)c1ccc(CN2CCCC2)cc1` (stereo not drawn) [Compound 64, N-[3-(3,5-Bis(trifluoromethyl)benzyloxy)-2-phenylpropyl]-4-pyrrolidin-1-ylmethylbenzamide hydrochloride], for which the IC50 on human NK1 receptor was found to be 56.4 nM. Further, in data set [1] (male, Hartley, guinea pig, po), the AUC(0-t) was 19.7 µg·h/mL and the half-life is 480 min. In data set [1] (setting [2]), the Cmax was 1700 ng/mL. Further, in data set [1] (setting [3]), the Tmax was determined as 4 h.
